SMILES strings stand for the structures. The source made the active and inactive calls. The rule behind the calls is not given here.

Experiment [1] addresses Rho-associated protein kinase 1 (Homo sapiens, UniProt Q13464). Kind of experiment: Inhibition of ROCK1 by IMAP assay.
Experiment [2] deals with Serine/threonine-protein kinase PAK 2 (Homo sapiens) (UniProt Q13177). Kind of experiment: Inhibition of PAK2 at 2 uM.
The target of experiment [3] is Serine/threonine-protein kinase Nek2 (Homo sapiens) (UniProt P51955). Kind of experiment: Inhibition of NEK2 at 2 uM.
Experiment [4] has as its target Hepatocyte growth factor receptor (Homo sapiens) (UniProt P08581). Kind of experiment: Inhibition of Met at 2 uM.
The nature of experiment [5]: Inhibition of MAPK at 2 uM.
The target in experiment [6] is MAP kinase-activated protein kinase 2 (Homo sapiens) (UniProt P49137). Kind of experiment: Inhibition of MAPK2 at 2 uM.
In experiment [7] the target is Tyrosine-protein kinase Lck (Homo sapiens) (UniProt P06239). Kind of experiment: Inhibition of LCK at 2 uM.
In experiment [8] the target is Glycogen synthase kinase-3 beta (Homo sapiens) (UniProt P49841). Kind of experiment: Inhibition of GSK3-beta at 2 uM.
Glycogen synthase kinase-3 beta (Homo sapiens), sequence (P49841 whole entry, looked up): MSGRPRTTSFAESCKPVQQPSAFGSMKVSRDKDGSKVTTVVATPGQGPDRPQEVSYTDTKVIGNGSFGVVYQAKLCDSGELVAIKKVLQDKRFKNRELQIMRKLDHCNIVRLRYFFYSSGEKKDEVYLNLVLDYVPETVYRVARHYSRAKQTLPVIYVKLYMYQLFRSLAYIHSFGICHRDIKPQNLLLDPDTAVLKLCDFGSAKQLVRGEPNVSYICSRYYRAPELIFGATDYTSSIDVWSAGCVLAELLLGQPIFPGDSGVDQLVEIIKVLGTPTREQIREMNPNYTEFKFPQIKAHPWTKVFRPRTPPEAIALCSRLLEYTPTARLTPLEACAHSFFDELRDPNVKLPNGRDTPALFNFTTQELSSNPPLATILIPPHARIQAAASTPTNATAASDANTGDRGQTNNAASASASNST
Experiment [9] deals with Proto-oncogene tyrosine-protein kinase Src (Homo sapiens) (UniProt P12931). Kind of experiment: Inhibition of cSRC at 2 uM.
Proto-oncogene tyrosine-protein kinase Src (Homo sapiens), sequence (P12931 2-536 limits assumed): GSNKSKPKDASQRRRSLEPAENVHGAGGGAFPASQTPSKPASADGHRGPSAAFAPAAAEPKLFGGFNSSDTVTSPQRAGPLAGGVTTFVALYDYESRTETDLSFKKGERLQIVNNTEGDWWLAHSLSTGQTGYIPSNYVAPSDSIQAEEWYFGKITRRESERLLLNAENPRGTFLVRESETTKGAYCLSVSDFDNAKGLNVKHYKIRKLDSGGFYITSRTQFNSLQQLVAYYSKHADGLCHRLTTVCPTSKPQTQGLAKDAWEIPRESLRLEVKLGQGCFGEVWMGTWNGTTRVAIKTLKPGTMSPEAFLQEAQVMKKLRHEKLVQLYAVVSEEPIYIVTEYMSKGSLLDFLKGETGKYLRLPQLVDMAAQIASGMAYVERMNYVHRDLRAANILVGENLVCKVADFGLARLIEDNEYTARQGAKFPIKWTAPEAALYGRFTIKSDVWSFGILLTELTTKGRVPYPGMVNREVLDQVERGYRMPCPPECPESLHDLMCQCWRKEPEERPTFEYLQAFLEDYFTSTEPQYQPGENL
Experiment [10] concerns the target Tyrosine-protein kinase CSK (Homo sapiens) (UniProt P41240). Kind of experiment: Inhibition of CSK at 2 uM.
Experiment [11] addresses RAF proto-oncogene serine/threonine-protein kinase (Homo sapiens) (UniProt P04049). Kind of experiment: Inhibition of cRAF at 2 uM.
A short description of experiment [12]: Inhibition of CK2 at 2 uM.
In experiment [13] the target is Casein kinase I isoform delta (Homo sapiens) (UniProt P48730). Kind of experiment: Inhibition of CK1delta at 2 uM.
Casein kinase I isoform delta (Homo sapiens), sequence (P48730 whole entry, looked up, canonical isoform): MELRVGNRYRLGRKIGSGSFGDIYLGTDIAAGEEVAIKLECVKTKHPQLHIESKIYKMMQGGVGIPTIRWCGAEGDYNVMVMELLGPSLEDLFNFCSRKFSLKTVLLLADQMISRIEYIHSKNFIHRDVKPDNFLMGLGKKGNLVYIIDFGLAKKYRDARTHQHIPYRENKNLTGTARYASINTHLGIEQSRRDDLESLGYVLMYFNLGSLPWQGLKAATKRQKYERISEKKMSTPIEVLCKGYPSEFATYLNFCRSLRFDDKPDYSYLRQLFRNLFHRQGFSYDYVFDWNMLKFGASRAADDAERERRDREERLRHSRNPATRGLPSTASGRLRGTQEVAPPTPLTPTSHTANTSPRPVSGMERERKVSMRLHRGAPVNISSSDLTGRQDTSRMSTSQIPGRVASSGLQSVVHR
The target of experiment [14] is Serine/threonine-protein kinase Chk1 (Homo sapiens) (UniProt O14757). Kind of experiment: Inhibition of CHK1 at 2 uM.
Serine/threonine-protein kinase Chk1 (Homo sapiens), sequence (O14757 whole entry): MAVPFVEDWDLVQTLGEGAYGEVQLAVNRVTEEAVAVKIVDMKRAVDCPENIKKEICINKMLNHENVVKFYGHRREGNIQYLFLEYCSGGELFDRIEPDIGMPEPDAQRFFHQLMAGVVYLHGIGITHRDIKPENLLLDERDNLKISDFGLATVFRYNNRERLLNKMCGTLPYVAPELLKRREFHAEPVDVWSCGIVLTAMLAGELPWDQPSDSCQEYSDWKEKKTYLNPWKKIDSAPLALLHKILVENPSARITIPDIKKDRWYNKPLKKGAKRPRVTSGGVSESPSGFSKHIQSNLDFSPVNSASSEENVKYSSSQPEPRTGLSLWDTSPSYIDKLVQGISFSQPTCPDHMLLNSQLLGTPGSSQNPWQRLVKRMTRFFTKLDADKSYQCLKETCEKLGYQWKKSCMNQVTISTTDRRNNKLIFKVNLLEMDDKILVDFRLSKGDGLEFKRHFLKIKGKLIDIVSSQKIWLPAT
Experiment [15] deals with Cyclin-dependent kinase 2 (Homo sapiens) (UniProt P24941). Kind of experiment: Inhibition of CDK2 at 2 uM.
Experiment [16] deals with Calcium/calmodulin-dependent protein kinase type IV (Homo sapiens) (UniProt Q16566). Kind of experiment: Inhibition of CaMK4 at 2 uM.
Calcium/calmodulin-dependent protein kinase type IV (Homo sapiens), sequence (Q16566 whole entry): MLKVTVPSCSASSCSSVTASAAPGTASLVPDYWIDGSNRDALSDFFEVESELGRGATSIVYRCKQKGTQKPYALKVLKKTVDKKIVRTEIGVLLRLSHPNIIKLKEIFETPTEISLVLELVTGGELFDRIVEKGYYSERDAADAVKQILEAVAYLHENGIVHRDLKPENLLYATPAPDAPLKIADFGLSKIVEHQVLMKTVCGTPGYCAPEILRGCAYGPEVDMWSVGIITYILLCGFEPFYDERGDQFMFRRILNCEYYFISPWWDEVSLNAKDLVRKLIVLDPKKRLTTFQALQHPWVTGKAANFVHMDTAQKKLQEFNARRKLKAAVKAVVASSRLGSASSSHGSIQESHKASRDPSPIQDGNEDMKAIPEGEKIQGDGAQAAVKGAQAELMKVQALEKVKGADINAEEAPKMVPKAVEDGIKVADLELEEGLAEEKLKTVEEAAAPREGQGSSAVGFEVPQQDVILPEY
Experiment [17] addresses Aurora kinase A (Homo sapiens) (UniProt O14965). Kind of experiment: Inhibition of AuroraA at 2 uM.
The target in experiment [18] is BDNF/NT-3 growth factors receptor (Homo sapiens) (UniProt Q16620). Kind of experiment: Inhibition of TRKbeta at 2 uM.
Experiment [19] concerns the target Platelet-derived growth factor receptor beta (Homo sapiens) (UniProt P09619). Kind of experiment: Inhibition of PDGFRbeta at 2 uM.
The target in experiment [20] is Dual specificity mitogen-activated protein kinase kinase 1 (Homo sapiens) (UniProt Q02750). Kind of experiment: Inhibition of MEK1 at 2 uM.
Dual specificity mitogen-activated protein kinase kinase 1 (Homo sapiens), sequence (Q02750 whole entry): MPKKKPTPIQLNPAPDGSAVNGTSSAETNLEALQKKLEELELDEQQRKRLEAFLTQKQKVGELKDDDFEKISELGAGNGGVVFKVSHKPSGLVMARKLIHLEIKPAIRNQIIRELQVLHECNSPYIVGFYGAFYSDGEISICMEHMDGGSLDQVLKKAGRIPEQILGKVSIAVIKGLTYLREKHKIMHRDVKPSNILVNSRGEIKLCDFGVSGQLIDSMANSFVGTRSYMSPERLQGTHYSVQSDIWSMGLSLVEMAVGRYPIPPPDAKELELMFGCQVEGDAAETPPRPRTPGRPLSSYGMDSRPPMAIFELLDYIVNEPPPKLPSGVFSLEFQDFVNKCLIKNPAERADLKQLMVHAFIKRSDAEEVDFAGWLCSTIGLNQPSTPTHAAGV
Experiment [21] deals with Serine/threonine-protein kinase STK11 (Homo sapiens) (UniProt Q15831). Kind of experiment: Inhibition of LKB1 at 2 uM.
Serine/threonine-protein kinase STK11 (Homo sapiens), sequence (Q15831 whole entry): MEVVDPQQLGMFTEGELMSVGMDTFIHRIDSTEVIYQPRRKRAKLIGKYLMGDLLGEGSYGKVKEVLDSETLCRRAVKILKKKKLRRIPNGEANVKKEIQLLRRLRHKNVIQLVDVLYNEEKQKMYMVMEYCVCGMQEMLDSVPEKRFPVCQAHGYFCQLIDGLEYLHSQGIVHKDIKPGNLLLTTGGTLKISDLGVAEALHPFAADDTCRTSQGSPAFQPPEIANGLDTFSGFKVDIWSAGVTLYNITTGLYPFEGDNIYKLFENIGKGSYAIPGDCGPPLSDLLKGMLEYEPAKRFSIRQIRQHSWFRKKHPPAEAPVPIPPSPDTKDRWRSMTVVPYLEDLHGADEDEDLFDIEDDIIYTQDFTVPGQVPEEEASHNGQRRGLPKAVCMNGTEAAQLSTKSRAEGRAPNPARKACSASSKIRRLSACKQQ
The target of experiment [22] is Insulin receptor (Homo sapiens) (UniProt P06213). Kind of experiment: Inhibition of IR at 2 uM.
Experiment [23] deals with Epidermal growth factor receptor (Homo sapiens) (UniProt P00533). Kind of experiment: Inhibition of EGFR at 2 uM.
For experiment [24], the target named is Ribosomal protein S6 kinase alpha-3 (Homo sapiens) (UniProt P51812). Kind of experiment: Inhibition of Rsk2 at 2 uM.
Experiment [25] addresses Tyrosine-protein kinase ZAP-70 (Homo sapiens) (UniProt P43403). Kind of experiment: Inhibition of Zap70 at 2 uM.
The subject of experiment [26] is Rattus norvegicus. Kind of experiment: Decrease in mean arterial blood pressure in spontaneous hypertensive rat model at 3 mg/kg, sc. It is filed as functional, organism-based. On the set-up: dose 3 mg/kg. Conditions: Artery.
The test system of experiment [27] is Rattus norvegicus. Kind of experiment: Decrease in mean arterial blood pressure in spontaneous hypertensive rat model at 10 mg/kg, sc. The experiment is classed as functional, organism-based. On the set-up: dose 10 mg/kg. Conditions: Artery.
For experiment [28], the system named is Rattus norvegicus. Kind of experiment: Decrease in mean arterial blood pressure in spontaneous hypertensive rat model at 30 mg/kg, sc. On the set-up: dose 30 mg/kg. It is filed as functional, organism-based. Conditions: Artery.

Rho-associated protein kinase 1, sequence (Q13464 whole entry): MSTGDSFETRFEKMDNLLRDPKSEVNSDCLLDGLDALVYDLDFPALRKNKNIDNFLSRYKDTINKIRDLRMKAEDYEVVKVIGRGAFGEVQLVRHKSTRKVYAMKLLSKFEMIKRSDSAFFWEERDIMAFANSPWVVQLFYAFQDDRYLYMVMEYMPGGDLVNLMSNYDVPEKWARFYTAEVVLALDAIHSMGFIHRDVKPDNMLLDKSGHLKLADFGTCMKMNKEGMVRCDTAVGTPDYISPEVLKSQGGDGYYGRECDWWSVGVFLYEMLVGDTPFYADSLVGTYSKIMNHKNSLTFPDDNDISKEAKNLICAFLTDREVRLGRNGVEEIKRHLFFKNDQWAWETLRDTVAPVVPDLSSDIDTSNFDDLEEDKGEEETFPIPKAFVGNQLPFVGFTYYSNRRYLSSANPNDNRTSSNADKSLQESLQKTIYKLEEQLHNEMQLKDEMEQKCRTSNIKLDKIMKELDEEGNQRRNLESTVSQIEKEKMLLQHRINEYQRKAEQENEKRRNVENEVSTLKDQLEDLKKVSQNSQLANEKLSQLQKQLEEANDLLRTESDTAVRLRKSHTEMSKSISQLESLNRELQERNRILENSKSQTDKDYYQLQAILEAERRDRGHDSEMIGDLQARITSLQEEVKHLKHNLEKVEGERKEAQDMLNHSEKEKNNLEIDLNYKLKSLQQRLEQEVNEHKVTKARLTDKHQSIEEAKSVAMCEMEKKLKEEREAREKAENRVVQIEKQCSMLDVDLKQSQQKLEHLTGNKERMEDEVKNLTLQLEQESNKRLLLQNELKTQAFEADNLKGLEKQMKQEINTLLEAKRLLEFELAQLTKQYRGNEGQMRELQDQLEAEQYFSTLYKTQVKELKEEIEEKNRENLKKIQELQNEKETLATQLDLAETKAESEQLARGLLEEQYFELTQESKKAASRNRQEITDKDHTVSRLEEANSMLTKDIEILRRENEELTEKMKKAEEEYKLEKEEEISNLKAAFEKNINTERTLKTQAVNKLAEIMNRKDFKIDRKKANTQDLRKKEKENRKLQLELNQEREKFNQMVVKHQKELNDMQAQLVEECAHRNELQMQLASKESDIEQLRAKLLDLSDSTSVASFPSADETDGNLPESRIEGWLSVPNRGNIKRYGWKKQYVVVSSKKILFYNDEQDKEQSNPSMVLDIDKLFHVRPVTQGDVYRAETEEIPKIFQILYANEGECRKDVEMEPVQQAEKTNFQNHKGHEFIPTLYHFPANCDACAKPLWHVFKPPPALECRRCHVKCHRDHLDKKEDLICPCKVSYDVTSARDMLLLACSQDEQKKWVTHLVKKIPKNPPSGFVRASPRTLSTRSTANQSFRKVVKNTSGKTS
Aurora kinase A (Homo sapiens), sequence (O14965 whole entry): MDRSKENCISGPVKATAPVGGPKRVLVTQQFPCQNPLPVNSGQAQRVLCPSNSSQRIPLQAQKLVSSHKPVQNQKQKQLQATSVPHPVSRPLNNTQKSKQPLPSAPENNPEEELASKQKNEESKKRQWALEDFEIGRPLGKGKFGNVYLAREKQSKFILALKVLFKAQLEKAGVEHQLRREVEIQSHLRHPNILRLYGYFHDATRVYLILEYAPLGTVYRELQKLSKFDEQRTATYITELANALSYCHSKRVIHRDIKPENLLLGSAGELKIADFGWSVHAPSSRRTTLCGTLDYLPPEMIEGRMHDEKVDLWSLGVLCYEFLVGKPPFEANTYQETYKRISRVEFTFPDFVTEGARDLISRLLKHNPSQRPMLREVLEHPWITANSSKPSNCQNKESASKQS

Molecule `C[C@H]1CNCCN1c1nc(Nc2ccncc2)nc(NC2Cc3ccccc3C2)n1` gave an IC50 in experiment [1] of 87 nM.
Turning to `c1ccc(Nc2nc(NC3Cc4ccccc4C3)nc(N3CCNCC3)n2)nc1`, in experiment [1], the half-maximal inhibitory concentration (IC50) came to 1000 nM.
For the molecule `c1cc(Nc2nc(NC3CCCC3)nc(N3CCNCC3)n2)ccn1`, the IC50 in experiment [1] was determined as 890 nM.
Regarding `c1ccc2c(c1)CC(Nc1nc(Nc3ccncc3)nc(N3CCNCC3)n1)C2`, the inhibition in experiment [2], in experiment [3], in experiment [4], in [5], in experiment [6] and in [7] was < 50% in each case. In addition, the inhibition in experiment [8], in experiment [9], in [10], in experiment [11], in [12] and in [13] was < 50% each time. Also, the inhibition in experiment [14], in experiment [15], in [16], in [17], in experiment [18] and in experiment [19] was < 50% in each case. Moreover, the inhibition in experiment [20], in experiment [21], in [22], in [23], in experiment [24] and in experiment [25] was < 50% each time. This molecule also had a half-maximal inhibitory concentration (IC50) in experiment [1] of 6 nM. In addition, the result in the experiment with Rattus norvegicus [26] and in the experiment with Rattus norvegicus [27] was Active.
On to `c1ccc(CNc2nc(Nc3ccncc3)nc(N3CCNCC3)n2)cc1`, for which the IC50 in experiment [1] is 400 nM.
With `CNCCN(C)c1nc(Nc2ccncc2)nc(NC2Cc3ccccc3C2)n1`, the IC50 in [1] turned out to be 81 nM.
On to `c1ccc(CCNc2nc(Nc3ccncc3)nc(N3CCNCC3)n2)cc1`, for which, in [1], the midpoint of inhibition, the IC50, lay at 326 nM.
As to `c1ccc2c(c1)CC(Oc1nc(Nc3ccncc3)nc(N3CCNCC3)n1)C2`, the IC50 in experiment [1] is 8 nM.
In experiment [1], `c1ccc2c(c1)CC(Nc1nc(Nc3ccncc3)cc(N3CCNCC3)n1)C2` yielded an IC50 of 1200 nM.
Same read-out and setting: as for `C[C@@H]1CN(c2nc(Nc3ccncc3)nc(NC3Cc4ccccc4C3)n2)CCN1`, the figure is 8 nM.
In [1], `c1ccc2c(c1)CC(Nc1nc(Nc3ccncc3)nc(N3CCCCC3)n1)C2` displayed an IC50 of 8300 nM.
The molecule `c1ccc2c(c1)CC(Nc1nc(Nc3ccncc3)nc(N3CCCNCC3)n1)C2` yielded an IC50 in experiment [1] of 11 nM.
As to `c1ccc2c(c1)CC(Nc1cc(Nc3ccncc3)nc(N3CCNCC3)n1)C2`, half-maximal inhibition in experiment [1] (IC50) was put at 2 nM.
`c1ccc2c(c1)CCC2Nc1nc(Nc2ccncc2)nc(N2CCNCC2)n1` (stereo not drawn) showed an IC50 in experiment [1] of 185 nM.
Still for that read-out and setting: then `c1ccc2c(c1)CC(Nc1cc(N3CCNCC3)nc(Nc3ccncc3)n1)C2`, with 14 nM.
The same measure, in the same setting: then `c1ccc(Nc2nc(NC3Cc4ccccc4C3)nc(N3CCNCC3)n2)cc1`, with 7400 nM.
With `CN1CCN(c2nc(Nc3ccncc3)nc(NC3Cc4ccccc4C3)n2)CC1`, the IC50 in experiment [1] is 305 nM.
Take `C[C@@H](N)[C@H]1CC[C@H](C(=O)Nc2ccncc2)CC1`: the result with Rattus norvegicus [28] was Active.
In turn, `c1cncc(Nc2nc(NC3Cc4ccccc4C3)nc(N3CCNCC3)n2)c1` gave an IC50 in experiment [1] of 8400 nM.
`C[C@@H]1CNCCN1c1nc(Nc2ccncc2)nc(NC2Cc3ccccc3C2)n1` displayed an IC50 in [1] of 118 nM.
`c1ccc2c(c1)CCC(Nc1nc(Nc3ccncc3)nc(N3CCNCC3)n1)C2` (stereo not drawn) came in with a concentration for half-maximal inhibition (IC50) in experiment [1] of 23 nM.
With `C[C@H]1CN(c2nc(Nc3ccncc3)nc(NC3Cc4ccccc4C3)n2)CCN1`, half-maximal inhibition in experiment [1] (IC50) required 135 nM.

Source of the values: ChEMBL document CHEMBL1154592, “Triazine and pyrimidine based ROCK inhibitors with efficacy in spontaneous hypertensive rat model” (Bioorg Med Chem Lett, 2009).
